Measurements reported in patent publication US20170313665A1, “HYDROXYALKYL-SUBSTITUTED PHENYLTRIAZOLE DERIVATIVES AND USES THEREOF” (BAYER PHARMA AKTIENGESELLSCHAFT, priority 2014, published 2017).
One block for each molecule: values may come before it.

What was measured:
human V1a receptor = biological target: T1, human V1a receptor (Homo sapiens, UniProt P37288); experiment: Cellular in vitro assay for vasopressin receptor activity, V1a receptor cell line (aequorin luminescence); assay type: cell-based; details: CHO cell line transfected with human V1a receptor; [Arg8]-vasopressin at EC50; read-out: IC50 hV1a
T1 construct: expressed in transfected cells; host or cells: CHO K1 (ATCC), also stably transfected with a modified aequorin
Description: The identification of agonists and antagonists of the V1a and V2 vasopressin receptors from humans, rats and dogs as well as the quantification of the activity of the compounds of the invention is carried out using recombinant cell lines. These cell lines originally derive from a hamster's ovary epithelial cell (Chinese Hamster Ovary, CHO K1, ATCC: American Type Culture Collection, Manassas, Va. 20108, USA). The test cell lines constitutively express the human, rat or dog V1a or V2 receptors. […] The resulting vasopressin receptor cells react to stimulation of the recombinantly expressed V1a receptors by intracellular release of calcium ions, which can be quantified by the resulting photoprotein luminescence. […] The bioluminescence of the cell lines is detected using a suitable luminometer [Milligan G, Marshall F, Rees S, Trends in Pharmacological Sciences 17, 235-237 (1996)].
On the day before the assay, the cells are plated out in culture medium (DMEM/F12, 2% FCS, 2 mM glutamine, 10 mM HEPES, 5 μg/ml coelenterazine) in 384-well microtiter plates and kept in a cell incubator (96% humidity, 5% v/v CO2, 37° C.). […] The resulting light signal is measured immediately in the luminometer. […]

Wistar rats = experiment: Diuresis investigations in conscious rats kept in metabolism cages; assay type: in vivo, rat
Description: Wistar rats (220-450 g body weight) are kept with free access to feed (Altromin) and drinking water. During the experiment, the animals are kept with free access to drinking water for 4 to 8 or up to 24 hours individually in metabolism cages suitable for rats of this weight class (Tecniplast Deutschland GmbH, D-82383 Hohenpeiβenberg). At the beginning of the experiment, the animals are administered the test substance in a volume of 1 to 3 ml/kg body weight of a suitable solvent by means of gavage into the stomach. Control animals only receive solvent. Controls and substance tests are carried out in parallel on the same day. Control groups and substance-dose groups each consist of 4 to 8 animals. During the experiment, the urine excreted by the animals is collected continuously in a receiver at the base of the cage. The volume of urine per time unit is determined separately for each animal, and the concentration of urinary electrolytes is measured by standard methods of flame photometry. Before the beginning of the experiment, the body weight of the individual animals is determined.

[1] = dosage p.o. 0.3 mg/kg, 0.3 mg/kg

T1 sequence (P37288 whole entry): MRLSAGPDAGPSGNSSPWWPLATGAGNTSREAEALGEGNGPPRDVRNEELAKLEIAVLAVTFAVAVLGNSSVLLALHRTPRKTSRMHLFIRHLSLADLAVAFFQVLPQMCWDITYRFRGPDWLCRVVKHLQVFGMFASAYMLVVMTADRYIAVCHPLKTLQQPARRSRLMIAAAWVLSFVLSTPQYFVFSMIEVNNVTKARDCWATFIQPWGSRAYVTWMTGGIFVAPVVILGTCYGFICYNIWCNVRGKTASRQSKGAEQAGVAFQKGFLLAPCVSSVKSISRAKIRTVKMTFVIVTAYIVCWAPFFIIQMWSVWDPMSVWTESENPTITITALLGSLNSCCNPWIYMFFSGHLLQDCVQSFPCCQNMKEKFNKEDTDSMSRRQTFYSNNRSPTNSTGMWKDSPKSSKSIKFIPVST

- IC50 (human V1a receptor): 0.5 nM
SMILES: CC(O)c1nc(Cn2nc(-c3ccc(Cl)cc3)n(C[C@H](O)C(F)(F)F)c2=O)nn1-c1cc(F)ccc1Cl (single isomer, unassigned) [Example 60]

SMILES: COc1ccccc1-n1nc(Cn2nc(-c3ccc(Cl)cc3)n(C[C@H](O)C(F)(F)F)c2=O)nc1C(C)O (single isomer, unassigned) [Example 12]
- Urinary volume [% vs. control = 100%] (Wistar rats; [1]): 96 % vs. control = 100%
- Urinary volume [% vs. control = 100%] (Wistar rats; dosage p.o. 3.0 mg/kg, 3 mg/kg): 323 % vs. control = 100%

SMILES: C[C@H](O)c1nc(Cn2nc(-c3ccc(Cl)cc3)n(C[C@H](O)C(F)(F)F)c2=O)nn1-c1cccc(F)c1 [Example 76, 5-(4-Chlorophenyl)-2-({1-(3-fluorophenyl)-5-[(1 S)-1-hydroxyethyl]-1H-1,2,4-triazol-3-yl}methyl)-4-[(2S)-3,3,3-trifluoro-2-hydroxypropyl]-2,4-dihydro-3H-1,2,4-triazol-3-one]
- Urinary volume [% vs. control = 100%] (Wistar rats; dosage p.o. 3.0 mg/kg): 1257 % vs. control = 100%

SMILES: C[C@H](O)c1nc(Cn2nc(-c3ccc(Cl)cc3)n(C[C@H](O)C(F)(F)F)c2=O)nn1-c1cccc(Cl)c1 [Example 79, 5-(4-Chlorophenyl)-2-({1-(3-chlorophenyl)-5-[(1S)-1-hydroxyethyl]-1H-1,2,4-triazol-3-yl}methyl)-4-[(2S)-3,3,3-trifluoro-2-hydroxypropyl]-2,4-dihydro-3H-1,2,4-triazol-3-one]
- Urinary volume [% vs. control = 100%] (Wistar rats; dosage p.o. 3.0 mg/kg): 1312 % vs. control = 100%

- IC50 (human V1a receptor): 0.5 nM
SMILES: CC(O)c1nc(Cn2nc(-c3ccc(Cl)cc3)n(C[C@H](O)C(F)(F)F)c2=O)nn1-c1cc(F)ccc1Cl (single isomer, unassigned) [Example 59]

SMILES: C[C@@H](O)c1nc(Cn2nc(-c3ccc(Cl)cc3)n(C[C@H](O)C(F)(F)F)c2=O)nn1-c1ccccc1Cl [Example 83, 5-(4-Chlorophenyl)-2-({1-(2-chlorophenyl)-5-[(1R)-1-hydroxyethyl]-1H-1,2,4-triazol-3-yl}-methyl)-4-[(2S)-3,3,3-trifluoro-2-hydroxypropyl]-2,4-dihydro-3H-1,2,4-triazol-3-one]
- Urinary volume [% vs. control = 100%] (Wistar rats; dosage p.o. 3.0 mg/kg): 1094 % vs. control = 100%

SMILES: COc1ccccc1-n1nc(Cn2nc(-c3ccc(Cl)cc3)n(C[C@H](O)C(F)(F)F)c2=O)nc1C(C)O (single isomer, unassigned) [Example 11]
- Urinary volume [% vs. control = 100%] (Wistar rats; [1]): 159 % vs. control = 100%
- Urinary volume [% vs. control = 100%] (Wistar rats; dosage p.o. 3.0 mg/kg, 3 mg/kg): 443 % vs. control = 100%

SMILES: CC(O)c1nc(Cn2nc(-c3ccc(Cl)cc3)n(C[C@H](O)C(F)(F)F)c2=O)nn1-c1cc(F)cc(Cl)c1 (single isomer, unassigned) [Example 15]
- Urinary volume [% vs. control = 100%] (Wistar rats; dosage p.o. 0.3 mg/kg): 412 % vs. control = 100%
- Urinary volume [% vs. control = 100%] (Wistar rats; dosage p.o. 3.0 mg/kg): 1085 % vs. control = 100%

SMILES: CC(O)c1nc(Cn2nc(-c3ccc(Cl)cc3)n(C[C@H](O)C(F)(F)F)c2=O)nn1-c1cc(F)cc(Cl)c1 (single isomer, unassigned) [Example 14]
- Urinary volume [% vs. control = 100%] (Wistar rats; dosage p.o. 1.0 mg/kg): 753 % vs. control = 100%
